Data set [1] is described as follows: Kinetic solubility assay (CLND), pH 6.8. It is filed as physicochemical. The note with it: aqueous buffer, kinetic from dmso stock; potassium phosphate buffer pH 6.8, 2% DMSO, 24 hours at ambient temperature.
Data set [2] concerns the target MDR1 (Homo sapiens (Human), UniProt P08183). Put plainly: in vitro. Particulars: MDCK-MDR1.
Data set [3] has as its target IRAK4 (Homo sapiens (Human), UniProt Q9NWZ3). Briefly: IRAK4 MSD biochemical assay (2-hour 1 mM ATP). The note with it: 0.1 nM IRAK4, 1 mM ATP, 2 hour at room temperature.

In brackets after ≈: the same amount, converted by molar mass.

Sequence of MDR1 (P08183 whole entry): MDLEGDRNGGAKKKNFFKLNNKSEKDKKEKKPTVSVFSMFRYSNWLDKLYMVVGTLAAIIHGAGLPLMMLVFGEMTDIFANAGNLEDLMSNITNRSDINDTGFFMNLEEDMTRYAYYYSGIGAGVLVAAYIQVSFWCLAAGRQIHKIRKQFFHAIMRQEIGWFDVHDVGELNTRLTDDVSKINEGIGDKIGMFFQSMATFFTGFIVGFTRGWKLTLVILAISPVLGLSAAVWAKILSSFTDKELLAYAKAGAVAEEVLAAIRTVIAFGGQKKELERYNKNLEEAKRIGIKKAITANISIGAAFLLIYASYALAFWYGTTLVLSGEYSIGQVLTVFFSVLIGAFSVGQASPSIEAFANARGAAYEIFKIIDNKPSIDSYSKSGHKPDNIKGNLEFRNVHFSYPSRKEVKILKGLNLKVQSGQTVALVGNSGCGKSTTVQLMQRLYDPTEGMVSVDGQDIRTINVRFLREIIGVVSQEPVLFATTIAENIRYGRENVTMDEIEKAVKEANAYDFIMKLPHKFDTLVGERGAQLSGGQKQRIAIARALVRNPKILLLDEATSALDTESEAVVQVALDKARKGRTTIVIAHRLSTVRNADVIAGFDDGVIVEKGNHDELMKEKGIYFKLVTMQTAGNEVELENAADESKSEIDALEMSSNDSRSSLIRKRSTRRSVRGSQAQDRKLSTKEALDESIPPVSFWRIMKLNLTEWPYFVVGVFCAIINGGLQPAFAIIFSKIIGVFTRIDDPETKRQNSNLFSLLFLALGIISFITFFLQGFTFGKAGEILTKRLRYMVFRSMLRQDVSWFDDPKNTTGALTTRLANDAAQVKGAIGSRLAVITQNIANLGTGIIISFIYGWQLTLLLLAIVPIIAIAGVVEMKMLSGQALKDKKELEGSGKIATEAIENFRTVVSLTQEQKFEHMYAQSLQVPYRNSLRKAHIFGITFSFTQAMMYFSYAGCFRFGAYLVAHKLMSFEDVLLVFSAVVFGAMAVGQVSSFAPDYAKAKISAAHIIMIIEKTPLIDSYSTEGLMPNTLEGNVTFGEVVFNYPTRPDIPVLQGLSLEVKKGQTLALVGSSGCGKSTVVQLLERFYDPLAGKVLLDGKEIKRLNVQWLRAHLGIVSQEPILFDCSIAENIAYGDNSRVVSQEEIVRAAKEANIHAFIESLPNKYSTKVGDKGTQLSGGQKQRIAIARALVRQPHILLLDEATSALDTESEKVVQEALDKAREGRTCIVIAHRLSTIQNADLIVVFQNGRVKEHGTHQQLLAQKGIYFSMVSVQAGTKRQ
Sequence of IRAK4 (Q9NWZ3 whole entry): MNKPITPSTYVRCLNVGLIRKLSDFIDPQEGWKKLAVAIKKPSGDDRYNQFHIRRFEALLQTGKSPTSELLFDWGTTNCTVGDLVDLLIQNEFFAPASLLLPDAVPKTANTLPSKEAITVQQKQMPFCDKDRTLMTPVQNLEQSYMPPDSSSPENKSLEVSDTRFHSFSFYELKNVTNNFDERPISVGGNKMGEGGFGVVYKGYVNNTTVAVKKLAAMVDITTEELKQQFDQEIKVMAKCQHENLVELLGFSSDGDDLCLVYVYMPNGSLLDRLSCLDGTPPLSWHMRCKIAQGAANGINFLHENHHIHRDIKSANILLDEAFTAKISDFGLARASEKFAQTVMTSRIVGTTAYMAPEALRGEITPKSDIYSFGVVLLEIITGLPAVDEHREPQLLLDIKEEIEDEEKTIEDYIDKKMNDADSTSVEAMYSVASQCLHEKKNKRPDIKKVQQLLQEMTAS

In data set [1], `CC(C)Oc1c(C(=O)Nc2cccn([C@H]3C[C@H]3F)c2=O)cn2cc(C34COC(C)(C3)C4)nc2c1F` (single isomer, unassigned) [Example 93] returned a solubility (kinetic) at 24 h of 62.8 µg/mL (≈ 130 µM). Besides, in data set [2], the efflux ratio at 120 min, 1 μM stood at 4.9. This compound displayed an IC50 in data set [3] of 0.6 nM.

As for `CC12CC(c3cn4cc(C(=O)Nc5cccn([C@@H]6C[C@@H]6F)c5=O)c(OC5CCC5)nc4n3)(CO1)C2` (single isomer, unassigned) [Example 113], the kinetic solubility at 24 h in data set [1] is 59.5 µg/mL (≈ 124 µM). Besides, the efflux ratio at 120 min, 1 μM in data set [2] is 8.7. This compound came in with an IC50 in data set [3] of 12.6 nM.

In data set [1], `CC12CC(c3cn4cc(C(=O)Nc5cccn([C@H]6C[C@H]6F)c5=O)c(OC5CCC5)nc4n3)(CO1)C2` (single isomer, unassigned) [Example 114] gave a kinetic solubility at 24 h of 68.6 µg/mL (≈ 143 µM). Besides, in data set [2], the efflux ratio at 120 min, 1 μM is 10.4. This compound also yielded an IC50 in data set [3] of 0.3 nM.

Consider `CC(C)Oc1cc2nc([C@@]34CC[C@@](C)(C3)OC4)cn2cc1C(=O)Nc1cccn([C@H]2C[C@@H]2F)c1=O` (single isomer, unassigned) [Example 117], for which the solubility (kinetic) at 24 h in data set [1] amounted to 23.1 µg/mL (≈ 48.1 µM). Also, the efflux ratio at 120 min, 1 μM in data set [2] came to 3.9. 0.7 nM corresponded to half-maximal inhibition in data set [3] (IC50).

As for `CC(C)Oc1cc2nc([C@]34CC[C@](C)(C3)OC4)cn2cc1C(=O)Nc1cccn([C@@H]2C[C@H]2F)c1=O` (single isomer, unassigned) [Example 118], in data set [1], the solubility (kinetic) at 24 h was 56.2 µg/mL (≈ 117 µM). Further, the efflux ratio at 120 min, 1 μM in data set [2] was found to be 5.1. The compound also returned an IC50 in data set [3] of 0.9 nM.

In the case of `CC(C)Oc1c(C(=O)Nc2cccn([C@H]3C[C@H]3F)c2=O)cn2cc([C@]34CC[C@](C)(C3)OC4)nc2c1F` (single isomer, unassigned) [Example 127], in data set [1], the kinetic solubility at 24 h was 32.6 µg/mL (≈ 65.4 µM). The efflux ratio at 120 min, 1 μM in data set [2] was found to be 3.4. Moreover, 0.7 nM corresponded to half-maximal inhibition in data set [3] (IC50).

On to `CC(C)Oc1nc2nc([C@]34CC[C@](C)(C3)OC4)cn2cc1C(=O)Nc1cccn([C@H]2CC23CC3)c1=O` (single isomer, unassigned) [Example 152], for which the solubility (kinetic) at 24 h in data set [1] amounted to 24.9 µg/mL (≈ 50.9 µM). In addition, the efflux ratio at 120 min, 1 μM in data set [2] turned out to be 1.4. Besides, in data set [3], the IC50 was 0.8 nM.

As for `CC[C@H](C)Oc1cc2nc(C34COC(C)(C3)C4)cn2cc1C(=O)Nc1cccn([C@H]2C[C@H]2F)c1=O` (single isomer, unassigned) [Example 161], the solubility (kinetic) at 24 h in data set [1] stood at 54.6 µg/mL (≈ 114 µM). Besides, the efflux ratio at 120 min, 1 μM in data set [2] came to 8.6. In data set [3], this compound had an IC50 of 0.1 nM.

`O=C(Nc1cccn([C@H]2C[C@H]2F)c1=O)c1cn2cc(C34COC(C3)C4)nc2nc1OC1CCC1` (single isomer, unassigned) [Example 167] gave a solubility (kinetic) at 24 h in data set [1] of 19.2 µg/mL (≈ 41.2 µM). In data set [2], the efflux ratio at 120 min, 1 μM stood at 2.3. Moreover, in data set [3], 0.2 nM corresponded to half-maximal inhibition (IC50).

For `CC12CC(c3cn4cc(C(=O)Nc5cccn([C@H]6C[C@H]6F)c5=O)c(OC5CCC5)cc4n3)(CO1)C2` (single isomer, unassigned) [Example 173], in data set [1], the kinetic solubility at 24 h amounted to 22.6 µg/mL (≈ 47.2 µM). For the same compound, the efflux ratio at 120 min, 1 μM in data set [2] was 10.9. This compound also had an IC50 in data set [3] of 0.2 nM.

`CC(C)Oc1cc2nc([C@@]34CC[C@@](C)(C3)OC4)cn2cc1C(=O)Nc1cccn([C@@H]2C[C@H]2C)c1=O` (single isomer, unassigned) [Example 191]: in data set [1], the solubility (kinetic) at 24 h is 48.5 µg/mL (≈ 102 µM). Also, the efflux ratio at 120 min, 1 μM in data set [2] came to 1.5. The IC50 in data set [3] was 0.4 nM.

`CC(C)Oc1cc2nc([C@@]34CC[C@@](C)(C3)OC4)cn2cc1C(=O)Nc1cccn([C@H]2C[C@@H]2C)c1=O` (single isomer, unassigned) [Example 192] had a solubility (kinetic) at 24 h in data set [1] of 60.6 µg/mL (≈ 127 µM). For the same compound, in data set [2], the efflux ratio at 120 min, 1 μM was found to be 1.7. This compound registered an IC50 in data set [3] of 0.7 nM.

In turn, `CC12CCC(c3cn4cc(C(=O)Nc5cccn(C6CC6)c5=O)c(OC5CCC5)cc4n3)(CC1)CO2` [Example 1, 7-cyclobutoxy-N-(1-cyclopropyl-2-oxo-1,2-dihydropyridin-3-yl)-2-(1-methyl-2-oxabicyclo[2.2.2]octan-4-yl)imidazo[1,2-a]pyridine-6-carboxamide] yielded a kinetic solubility at 24 h in data set [1] of 56 µg/mL (≈ 115 µM). Further, the efflux ratio at 120 min, 1 μM in data set [2] was determined as 1.7. Moreover, it took 0.2 nM to reach half-maximal inhibition in data set [3] (IC50).

`CCC12CC(c3cn4cc(C(=O)Nc5cccn(C6CC6)c5=O)c(OC(C)C)cc4n3)(CO1)C2` [Example 2, N-(1-cyclopropyl-2-oxo-1,2-dihydropyridin-3-yl)-2-(1-ethyl-2-oxabicyclo[2.1.1]hexan-4-yl)-7-isopropoxyimidazo[1,2-a]pyridine-6-carboxamide] yielded a kinetic solubility at 24 h in data set [1] of 65.7 µg/mL (≈ 142 µM). Further, the efflux ratio at 120 min, 1 μM in data set [2] worked out at 3.3. This compound also displayed an IC50 in data set [3] of 0.4 nM.

In turn, `CCC(C)Oc1cc2nc([C@@]34CC[C@@](C)(C3)OC4)cn2cc1C(=O)Nc1cccn(C2CC2)c1=O` (stereo partly drawn) [Example 20, 7-(sec-butoxy)-N-(1-cyclopropyl-2-oxo-1,2-dihydropyridin-3-yl)-2-((1S,4R)-1-methyl-2-oxabicyclo[2.2.1]heptan-4-yl)imidazo[1,2-a]pyridine-6-carboxamide] had a solubility (kinetic) at 24 h in data set [1] of 68.1 µg/mL (≈ 143 µM). Also, in data set [2], the efflux ratio at 120 min, 1 μM was 2.8. Moreover, the IC50 in data set [3] was 0.7 nM.

`CC12CCC(c3cn4cc(C(=O)Nc5cccn(C6CC6)c5=O)c(OC5CCC5)cc4n3)(CO1)C2` (stereo not drawn) [Example 23, 7-cyclobutoxy-N-(1-cyclopropyl-2-oxo-1,2-dihydropyridin-3-yl)-2-(1-methyl-2-oxabicyclo[2.2.1]heptan-4-yl)imidazo[1,2-a]pyridine-6-carboxamide]: the solubility (kinetic) at 24 h in data set [1] is 61.9 µg/mL (≈ 130 µM). For the same compound, the efflux ratio at 120 min, 1 μM in data set [2] came out at 2.8. Also, the concentration for half-maximal inhibition (IC50) in data set [3] was found to be 0.5 nM.

As for `C[C@@H](CF)Oc1cc2nc(C34COC(C)(C3)C4)cn2cc1C(=O)Nc1cccn(C2CC2)c1=O` [Example 28, (S)—N-(1-cyclopropyl-2-oxo-1,2-dihydropyridin-3-yl)-7-((1-fluoropropan-2-yl)oxy)-2-(1-methyl-2-oxabicyclo[2.1.1]hexan-4-yl)imidazo[1,2-a]pyridine-6-carboxamide], the kinetic solubility at 24 h in data set [1] was found to be 62.6 µg/mL (≈ 134 µM). The efflux ratio at 120 min, 1 μM in data set [2] amounted to 18.2. The IC50 in data set [3] is 0.2 nM.

`C[C@H](CF)Oc1cc2nc(C34COC(C)(C3)C4)cn2cc1C(=O)Nc1cccn(C2CC2)c1=O` [Example 29, (R)—N-(1-cyclopropyl-2-oxo-1,2-dihydropyridin-3-yl)-7-((1-fluoropropan-2-yl)oxy)-2-(1-methyl-2-oxabicyclo[2.1.1]hexan-4-yl)imidazo[1,2-a]pyridine-6-carboxamide] registered a solubility (kinetic) at 24 h in data set [1] of 60.2 µg/mL (≈ 129 µM). In addition, in data set [2], the efflux ratio at 120 min, 1 μM turned out to be 13.6. For the same compound, the IC50 in data set [3] was 0.6 nM.

In data set [1], `CC(C)Oc1cc2nc(C34COC(C3)C4)cn2cc1C(=O)Nc1cccn(C2CC2)c1=O` [Example 34, 2-(2-oxabicyclo[2.1.1]hexan-4-yl)-N-(1-cyclopropyl-2-oxo-1,2-dihydropyridin-3-yl)-7-isopropoxyimidazo[1,2-a]pyridine-6-carboxamide] gave a solubility (kinetic) at 24 h of 39.2 µg/mL (≈ 90.2 µM). For the same compound, the efflux ratio at 120 min, 1 μM in data set [2] amounted to 11.1. For the same compound, the IC50 in data set [3] stood at 1 nM.

Compound `O=C(Nc1cccn(C2CC2)c1=O)c1cn2cc(C34COC(C3)C4)nc2cc1OC1CCC1` [Example 37, 2-(2-oxabicyclo[2.1.1]hexan-4-yl)-7-cyclobutoxy-N-(1-cyclopropyl-2-oxo-1,2-dihydropyridin-3-yl)imidazo[1,2-a]pyridine-6-carboxamide] displayed a solubility (kinetic) at 24 h in data set [1] of 64.4 µg/mL (≈ 144 µM). Moreover, the efflux ratio at 120 min, 1 μM in data set [2] stood at 10.2. This compound also returned an IC50 in data set [3] of 3.1 nM.

On to `CC[C@@H](C)Oc1nc2nc([C@@]34CC[C@@](C)(C3)OC4)cn2cc1C(=O)Nc1cccn(C2CC2)c1=O` [Example 48, 7-((R)-sec-butoxy)-N-(1-cyclopropyl-2-oxo-1,2-dihydropyridin-3-yl)-2-((1S,4R)-1-methyl-2-oxabicyclo[2.2.1]heptan-4-yl)imidazo[1,2-a]pyrimidine-6-carboxamide], for which the solubility (kinetic) at 24 h in data set [1] was 63.2 µg/mL (≈ 132 µM). The efflux ratio at 120 min, 1 μM in data set [2] came out at 3.2. This compound also displayed an IC50 in data set [3] of 0.8 nM.

For the compound `CC[C@H](C)Oc1nc2nc(C34CCC(CF)(C3)OC4)cn2cc1C(=O)Nc1cccn(C2CC2)c1=O` (stereo partly drawn) [Example 56, 7-((S)-sec-butoxy)-N-(1-cyclopropyl-2-oxo-1,2-dihydropyridin-3-yl)-2-(1-(fluoromethyl)-2-oxabicyclo[2.2.1]heptan-4-yl)imidazo[1,2-a]pyrimidine-6-carboxamide], the solubility (kinetic) at 24 h in data set [1] was 67.5 µg/mL (≈ 136 µM). The efflux ratio at 120 min, 1 μM in data set [2] amounted to 4.1. Further, the IC50 in data set [3] was determined as 0.6 nM.

In the case of `COC12CC(c3cn4cc(C(=O)Nc5cccn(C6CC6)c5=O)c(OC(C)C)cc4n3)(C1)C2` [Example 62, N-(1-cyclopropyl-2-oxo-1,2-dihydropyridin-3-yl)-7-isopropoxy-2-(3-methoxybicyclo[1.1.1]pentan-1-yl)imidazo[1,2-a]pyridine-6-carboxamide], the kinetic solubility at 24 h in data set [1] is 58.2 µg/mL (≈ 130 µM). In addition, the efflux ratio at 120 min, 1 μM in data set [2] worked out at 3.6. In data set [3], this compound registered an IC50 of 0.4 nM.

In turn, `CC12CC(c3cn4cc(C(=O)Nc5ccnn(C6CC6)c5=O)c(OC5CCC5)nc4n3)(CO1)C2` [Example 72, 7-cyclobutoxy-N-(2-cyclopropyl-3-oxo-2,3-dihydropyridazin-4-yl)-2-(1-methyl-2-oxabicyclo[2.1.1]hexan-4-yl)imidazo[1,2-a]pyrimidine-6-carboxamide] had a kinetic solubility at 24 h in data set [1] of 1.5 µg/mL (≈ 3.24 µM). In addition, the efflux ratio at 120 min, 1 μM in data set [2] stood at 1.7. This compound displayed an IC50 in data set [3] of 4.2 nM.

`CC(C)Oc1cc2nc([C@@]34CC[C@@](C)(C3)OC4)cn2cc1C(=O)Nc1ccnn(C2CC2)c1=O` [Example 74, N-(2-cyclopropyl-3-oxo-2,3-dihydropyridazin-4-yl)-7-isopropoxy-2-((1S,4R)-1-methyl-2-oxabicyclo[2.2.1]heptan-4-yl)imidazo[1,2-a]pyridine-6-carboxamide] came in with a solubility (kinetic) at 24 h in data set [1] of 47.5 µg/mL (≈ 102 µM). Besides, the efflux ratio at 120 min, 1 μM in data set [2] is 1. The compound further registered an IC50 in data set [3] of 1.2 nM.

Usually kinetic solubility stands for solubility judged after dilution from a stock solution rather than from solid. A word on the efflux ratio: it is the permeability from basolateral to apical divided by that in the opposite direction, in the common usage. One may read the IC50 as the concentration that gives 50% inhibition.

Source of the values: patent US20240116922A1, “IMIDAZO[1,2-A]PYRIDINE DERIVATIVES AS IRAK4 INHIBITORS AND THEIR USE IN THE TREATMENT OF DISEASE” (BIOGEN MA INC., priority 2020, published 2024).
